# According to paper PMC8784640, “New insights into the molecular mechanisms of glutaminase C inhibitors in cancer cells using serial room temperature crystallography” (The Journal of Biological Chemistry, 2021):
# Substitutions are numbered along the chain they refer to. “And” between values parts separate entries of the source, which are not always exact repeats. Identical values can stand only once.
# Legend:
# mouse GAC (K325A) = system: mouse GAC (K325A); set-up: method as in PMID 23935106; conditions: concentrations as high as 10 μM; equivalent to human GAC (K320A); cited from earlier work
# [1] = set-up: method as in PMID 26988803; conditions: compared with BPTES; cited from earlier work
# GAC (R317A and Y466W) = biological target: T1, GAC (R317A and Y466W) (Mus musculus, UniProt D3Z7P3, R322A/Y471W); experiment: Tryptophan fluorescence quenching binding assay, GAC (R317A and Y466W); conditions: GAC mutant R317A, Trp 466 fluorescence, read-out: Kd (apparent)
# T1 sequence (D3Z7P3 128-555 R322A/Y471W): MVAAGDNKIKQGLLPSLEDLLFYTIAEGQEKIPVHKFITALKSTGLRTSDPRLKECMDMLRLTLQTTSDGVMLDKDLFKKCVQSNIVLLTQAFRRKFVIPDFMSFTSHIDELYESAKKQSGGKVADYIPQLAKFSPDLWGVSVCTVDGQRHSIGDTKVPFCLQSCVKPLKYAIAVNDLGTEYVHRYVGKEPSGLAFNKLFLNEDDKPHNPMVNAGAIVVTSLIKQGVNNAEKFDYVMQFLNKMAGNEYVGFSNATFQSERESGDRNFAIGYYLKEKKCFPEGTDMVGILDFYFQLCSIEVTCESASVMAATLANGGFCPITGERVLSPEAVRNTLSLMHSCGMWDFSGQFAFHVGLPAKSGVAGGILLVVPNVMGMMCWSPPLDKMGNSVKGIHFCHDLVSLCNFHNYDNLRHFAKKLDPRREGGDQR
# GAC (K320A and Y466W) = biological target: T2, GAC (K320A and Y466W) (Mus musculus, UniProt D3Z7P3, K325A/Y471W); experiment: Tryptophan fluorescence quenching binding assay, GAC (K320A and Y466W); conditions: GAC mutant K320A, Trp 466 fluorescence, read-out: Kd (apparent)
# T2 construct: made in house
# T2 sequence (D3Z7P3 72-603 isoform D3Z7P3-2 K325A/Y471W): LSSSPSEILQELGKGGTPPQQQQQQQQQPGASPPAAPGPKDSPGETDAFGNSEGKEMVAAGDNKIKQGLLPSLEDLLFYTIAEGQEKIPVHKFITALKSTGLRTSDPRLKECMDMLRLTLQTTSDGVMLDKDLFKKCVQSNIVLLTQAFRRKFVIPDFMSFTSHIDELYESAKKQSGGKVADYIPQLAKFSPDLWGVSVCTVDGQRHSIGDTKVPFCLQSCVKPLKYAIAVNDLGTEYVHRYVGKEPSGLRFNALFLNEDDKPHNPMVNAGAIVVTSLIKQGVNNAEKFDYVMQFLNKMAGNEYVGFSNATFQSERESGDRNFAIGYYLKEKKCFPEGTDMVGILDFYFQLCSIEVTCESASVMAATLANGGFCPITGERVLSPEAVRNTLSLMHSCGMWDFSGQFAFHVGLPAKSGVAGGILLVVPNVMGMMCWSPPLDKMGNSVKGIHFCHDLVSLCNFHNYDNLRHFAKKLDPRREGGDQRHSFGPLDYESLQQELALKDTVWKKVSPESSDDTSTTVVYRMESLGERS
# GAC (Y466W) = biological target: T3, GAC (Y466W) (Mus musculus, UniProt D3Z7P3, Y471W); experiment: Tryptophan fluorescence quenching binding assay, GAC (Y466W); conditions: for Kd: Kd (apparent), Trp 466 fluorescence quenching
# T3 sequence (D3Z7P3 72-603 isoform D3Z7P3-2 Y471W limits assumed): T2 sequence (D3Z7P3 72-603 isoform D3Z7P3-2 K325A/Y471W) with A254K
# Experimental: (§1) We first examined their ability to alter the conformation of the activation loop, that is, the site where the compounds bind to GAC ([15], [28]). […] We then treated the GAC (Y466W) mutant with each molecule to monitor conformational changes within the substrate-binding site ([15], [28]).
# (§2) Mouse GAC (F327W) and GAC (Y471W), which correspond to human GAC (F322W) and GAC (Y466W), were prepared as previously described ([14], [28]), except that the protein was eluted in a higher salt buffer during FPLC purification (500 mM NaCl, 20 mM Tris–HCl, pH 8.5) to enhance protein stability. Assays were then conducted as previously described ([14], [28]). Briefly, 100 nM GAC (F327W) or GAC (Y471W) was solvated in 1 ml of 50 mM Tris-acetate, pH 8.5, with 0.1 mM EDTA and the indicated amount of inhibitor.
# GAC (F318A and Y466W) = biological target: T4, GAC (F318A and Y466W) (Mus musculus, UniProt D3Z7P3, F323A/Y471W); experiment: Tryptophan fluorescence quenching binding assay, GAC (F318A and Y466W); conditions: GAC mutant F318A, Trp 466 fluorescence, read-out: Kd (apparent)
# T4 sequence (D3Z7P3 128-555 F323A/Y471W): T1 sequence (D3Z7P3 128-555 R322A/Y471W) with A195R, F196A
# recombinant GAC = system: recombinant GAC; set-up: method as in PMID 26988803; conditions: cited from earlier work; for IC50: recombinant GAC (50 nM), total glutamine hydrolysis
# GAC (F322W) = biological target: T5, GAC (F322W) (Mus musculus, UniProt D3Z7P3, F327W); experiment: Tryptophan fluorescence quenching binding assay, GAC (F322W)
# T5 sequence (D3Z7P3 72-603 isoform D3Z7P3-2 F327W limits assumed): T2 sequence (D3Z7P3 72-603 isoform D3Z7P3-2 K325A/Y471W) with A254K, F256W, W400Y
# Experimental: as §1, §2
Kd (GAC (Y466W); 100 nM GAC (Y466W)),Kd (GAC (F322W)) [nM],quenching of Trp 322 fluorescence (in words) (GAC (F322W); GAC (F322W)),Compound,IC50 (recombinant GAC) [nM],quenching of Trp 466 fluorescence / binding (in words) (GAC (Y466W); GAC (Y466W)),further results
,,,"O=C(Cc1ccccc1)Nc1nnc(CCSCCc2nnc(NC(=O)Cc3ccccc3)s2)s1 [BPTES, bis-2-(5-phenylacetamido-1,3,4-thiadiazol-2-yl)ethyl sulfide, reference compound]",,,inhibition of mouse GAC (K325A) (mouse GAC (K325A)): resistant to inhibition
,,,"O=C(Cc1cccc(OC(F)(F)F)c1)Nc1ccc(CCCCc2nnc(NC(=O)Cc3ccccn3)s2)nn1 [CB-839, reference compound]",,,calculated logP relative to BPTES [1]: higher calculated logP
76 nM,,,O=C(Cc1ccccc1)Nc1nnc(NC2CCN(c3nnc(NC(=O)Cc4ccccc4)s3)CC2)s1 [UPGL00004],29,,Kd (GAC (R317A and Y466W)): 38 nM; Kd (GAC (K320A and Y466W)): > 1000 nM; Kd (GAC (F318A and Y466W)): 24 nM
,,,O=C(Cc1ccccc1)Nc1nnc(O[C@H]2CCN(c3nnc(NC(=O)Cc4ccccc4)s3)C2)s1 [UPGL00015],40,,
28.7 nM and 29 nM,54.5,quenching of Trp 322 fluorescence,O=C(Cc1ccccc1)Nc1nnc(OC2CCN(c3nnc(NC(=O)Cc4ccccc4)s3)CC2)s1 [UPGL00019],30,effective at causing a quenching of Trp 466 fluorescence,Kd (GAC (R317A and Y466W)): 31 nM; Kd (GAC (K320A and Y466W)): > 1000 nM; Kd (GAC (F318A and Y466W)): 54 nM
,,,CC(=O)Nc1nnc(OC2CCN(c3nnc(NC(C)=O)s3)CC2)s1 [UPGL00020],1050,significantly reduced binding,
27.2 nM,34.4,quenching of Trp 322 fluorescence,Nc1nnc(N2CCC(Oc3nnc(NC(=O)Cc4ccccc4)s3)CC2)s1 [UPGL00031],203,effective at causing a quenching of Trp 466 fluorescence,
,,,O=C(Cc1ccccc1)Nc1ccc(OC2CCN(c3ccc(NC(=O)Cc4ccccc4)nn3)CC2)nn1 [UPGL00045],98,,

Compound,Kd (GAC (Y466W); 100 nM GAC (Y466W)),Kd (GAC (F322W)) [nM],quenching of Trp 322 fluorescence (in words) (GAC (F322W); GAC (F322W)),IC50 (recombinant GAC) [nM],quenching of Trp 466 fluorescence / binding (in words) (GAC (Y466W); GAC (Y466W)),further results
Nc1nnc(OC2CCN(c3nnc(N)s3)CC2)s1 [UPGL00018],> 1000 nM,> 1000,largely ineffective at micromolar concentrations,> 10000,markedly less effective,"competition with UPGL00019 for GAC binding (GAC (Y466W); 100 nM GAC (Y466W), 1 μM UPGL00018 and 1 μM UPGL00019, simultaneous or sequential): unable to compete away UPGL00019; lowest concentration with statistically significant effect on tryptophan fluorescence (GAC (Y466W); GAC (Y466W), highest tested concentration, effect minimal): 980 nM; inhibition (recombinant GAC; at 10 μM, catalytic data of this paper come from ref 20): ~20%; lowest concentration with statistically significant quenching (GAC (F322W); GAC (F322W)): 240 nM"
